Experimental data: publication PMC11700842 (The Journal of Antibiotics, 2024)
Converted amounts (≈) assume the structure as drawn. Read-outs that look alike come from different tables or passages of the source.

Experiments:
M. smegmatis [1] = experiment: MIC determination (resazurin) against M. smegmatis; format: cell-based, M. smegmatis mc^2155; conditions: Mycolicibacterium smegmatis; lowest concentration reducing growth to 1% or less; 21 h + 3 h resazurin; N = 3
M. smegmatis [2] = experiment: Ethidium bromide accumulation assay in M. smegmatis; format: cell-based; conditions: analogues 100 µM, verapamil 102 µM, with glucose; for % Change in fluorescence (accumulation): end of 60 min assay; for Rate of accumulation (ethidium bromide): rate from 5–14 minutes
M. bovis BCG [3] = format: cell-based; conditions: analogues 100 µM, verapamil 102 µM, with glucose; for % Change in fluorescence (accumulation): end of 60 min assay; for Rate of accumulation (ethidium bromide): rate from 5–14 minutes
E. faecium E745 = experiment: microbe, parasite or virus in culture; format: cell-based; conditions: Enterococcus faecium, E745, 24 h, read-out: MIC99 E. faecium E745
M. bovis BCG [4] = format: cell-based; conditions: analogues 100 µM, verapamil 102 µM, with glucose; for % Change in fluorescence (efflux): end of 60 min assay; for Rate of efflux (ethidium bromide): rate from 0–9 minutes
M. smegmatis [5] = experiment: Ethidium bromide efflux assay in M. smegmatis; format: cell-based; conditions: for % Change in fluorescence (efflux) / Rate of efflux (ethidium bromide): analogues 100 µM, verapamil 102 µM, with glucose; for % Change in fluorescence (efflux): end of 60 min assay; for Rate of efflux (ethidium bromide): rate from 0–9 minutes
[6] = molecular target: T1, human dopamine transporter (Homo sapiens, UniProt Q01959); experiment: cell-based; format: cell-based; conditions: for IC50: CHO cells transfected with human dopamine transporter, 0.3 µM [3H] dopamine, 90 min, read-out: IC50 against dopamine transporter; for IC50 / inhibition at 0.1 µM: N = 3; for inhibition at 0.1 µM: CHO, dopamine transporter uptake, 100 nM
T1 construct: host or cells: Chinese hamster ovary (CHO) cells
Protocol: This assay was performed by Eurofins Discovery and is based on a reported method. […] Following incubation, the amount of [^3H] dopamine was quantified using a scintillation counter (Topcount, Packard). The results were expressed as a percentage inhibition relative to the control uptake of [^3H] dopamine.
In this assay, five concentrations of each analogue were tested, in triplicate, ranging from 10 µM to 100 nM (Supplementary Fig. S2).
26 Supplementary Figure S2: Dopamine transporter uptake assays monitoring
The uptake of [3H] dopamine into Chinese
28 hamster ovary cells, transfected with the human dopamine transporter, was used to […]

[7] = system: M. bovis BCG membrane electric potential; format: cell-based
dopamine transporter [8] = format: cell-based; conditions: based on IC50 from Paudel et al.
dopamine transporter [9] = system: dopamine transporter; set-up: method as in PMID 28274674; conditions: human embryonic kidney 293 cells; 20 nM [3H] dopamine over 5 min at 37 °C; read-out: IC50 against the dopamine transporter; cited from earlier work
Streptococcus pneumoniae = system: Streptococcus pneumoniae; set-up: method as in PMID 36982905; conditions: cited from earlier work
[10] = three patients with structural heart disease; cited from earlier work
[11] = M. bovis BCG, test compounds 100 µM, CCCP 25 µM, Fig. 3

T1 sequence (Q01959 whole entry): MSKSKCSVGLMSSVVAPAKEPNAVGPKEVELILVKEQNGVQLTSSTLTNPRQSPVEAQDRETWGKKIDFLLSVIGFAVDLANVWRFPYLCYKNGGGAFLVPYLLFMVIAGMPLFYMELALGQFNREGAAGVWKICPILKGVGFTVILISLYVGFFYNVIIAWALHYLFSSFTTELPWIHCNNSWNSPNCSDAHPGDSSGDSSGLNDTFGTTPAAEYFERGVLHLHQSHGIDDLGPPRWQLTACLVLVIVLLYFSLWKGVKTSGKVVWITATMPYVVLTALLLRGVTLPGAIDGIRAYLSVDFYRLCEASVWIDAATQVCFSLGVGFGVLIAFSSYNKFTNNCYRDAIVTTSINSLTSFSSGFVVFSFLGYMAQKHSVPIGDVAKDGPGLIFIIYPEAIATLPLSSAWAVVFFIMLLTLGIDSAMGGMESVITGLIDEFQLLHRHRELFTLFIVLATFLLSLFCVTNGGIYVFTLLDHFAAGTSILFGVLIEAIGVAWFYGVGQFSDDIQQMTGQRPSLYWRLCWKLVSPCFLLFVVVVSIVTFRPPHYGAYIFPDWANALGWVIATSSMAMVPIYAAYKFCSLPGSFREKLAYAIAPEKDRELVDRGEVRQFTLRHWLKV

SMILES | MIC99 (M. smegmatis [1]) [µM] | % Change in fluorescence (accumulation) (M. smegmatis [2]) [%] | Rate of accumulation (ethidium bromide) (M. smegmatis [2]) [RFUs/min] | % Change in fluorescence (accumulation) (M. bovis BCG [3]) [%] | Rate of accumulation (ethidium bromide) (M. bovis BCG [3]) [RFUs/min] | MIC99 (E. faecium E745) [µM] | % Change in fluorescence (efflux) (M. bovis BCG [4]) | Rate of efflux (ethidium bromide) (M. bovis BCG [4]) | % Change in fluorescence (efflux) (M. smegmatis [5]) | Rate of efflux (ethidium bromide) (M. smegmatis [5]) | IC50 [6] [nM] | inhibition at 0.1 µM [6] [%] | impact on membrane electric potential (in words) [7, 11] | impact on membrane electric potential (in words) [7] | difference between MIC99 against M. bovis BCG and IC50 against the dopamine transporter (dopamine transporter [8]) [×] | IC50 (dopamine transporter [9]) [nM] | difference between MIC99 against M. bovis BCG and IC50 against the dopamine transporter ([6]; based on data of this study) [×] | activity against Streptococcus pneumoniae (in words) (Streptococcus pneumoniae) | adverse cardiac event in phase III clinical trial [10] | effect on ethidium bromide efflux (in words) (M. smegmatis [5]; 100 µM)
Oc1ccc(CN2CCN(CCOC(c3ccc(F)cc3)c3ccc(F)cc3)CC2)cc1 [Compound 6] | > 100 | 75 ± 2 | 1100 ± 40 | 36 ± 3 | 140 ± 480 | > 100 | –21 ± 0.2% | –1400 ± 330 RFUs/min | –49 ± 0.3% | –2500 ± 200 RFUs/min |  |  |  |  |  |  |  |  |  | 
C#CCOC(CCN1CCN(CCOC(c2ccc(F)cc2)c2ccc(F)cc2)CC1)c1ccccc1 (stereo not drawn) [Compound 10] | 100 | 323 ± 7 | 4500 ± 260 | 66 ± 1 | 1200 ± 700 | > 100 | –13 ± 0.3% | –940 ± 700 RFUs/min | –13 ± 0.1% | –1200 ± 200 RFUs/min | < 100 | 95 | greater impact than vanoxerine |  |  |  |  |  |  | 
Fc1ccc(CN2CCN(CCOC(c3ccc(F)cc3)c3ccc(F)cc3)CC2)cc1 [Compound 5] | > 100 | 175 ± 4 | 1300 ± 20 | 39 ± 1 | 130 ± 130 | > 100 | –20 ± 0.02% | –1500 ± 50 RFUs/min | –25 ± 0.2% | –1700 ± 200 RFUs/min |  |  |  |  |  |  |  |  |  | 
c1ccc(CCCN2CCN(CCOC(c3ccccc3)c3ccccc3)CC2)cc1 [GBR12935, 1-[2-(Diphenylmethoxy)ethyl]-4-(3-phenylpropyl)piperazine, reference compound] | 100 | 90 ± 3 | 1100 ± 40 | 34 ± 2 | 160 ± 240 | > 100 | –16 ± 0.1% | –1300 ± 150 RFUs/min | –37 ± 0.2% | –2000 ± 100 RFUs/min |  |  |  |  |  |  |  |  |  | 
N#CC(C#N)=NNc1cccc(Cl)c1 [CCCP, Carbonyl cyanide m-chlorophenyl hydrazone, reference compound] |  |  |  |  |  |  |  |  |  |  |  |  |  | greatest loss of electric potential |  |  |  |  |  | 
Fc1ccc(C(OCCN2CCC(Cc3ccccc3)CC2)c2ccc(F)cc2)cc1 [Compound 3] | 50 | 286 ± 1 | 3000 ± 100 | 67 ± 1 | 480 ± 300 | 25 (≈ 10.5 µg/mL) | –18 ± 6% | –1300 ± 200 RFUs/min | –11 ± 0.1% | –1400 ± 200 RFUs/min | 140 | 35.8 | greater impact than vanoxerine |  | 3.7 | 6800 | 179 |  |  | 
Fc1ccc(C(OCCN2CCN(CCCc3ccccc3)CC2)c2ccc(F)cc2)cc1 [vanoxerine, 1-[2-[Bis(4-fluorophenyl)methoxy]ethyl]-4-(3-phenylpropyl)piperazine, reference compound] | 50 | 299 ± 3 | 3000 ± 130 | 48 ± 3 | 490 ± 800 | 44 (≈ 19.8 µg/mL) | –15 ± 1% | –1100 ± 950 RFUs/min | –11 ± 0.5% | –1100 ± 500 RFUs/min |  |  |  |  |  | […] |  | inhibited Streptococcus pneumoniae | caused ventricular pro-arrhythmia | 
CCCCCCCCCC(=O)OC(CCN1CCN(CCOC(c2ccc(F)cc2)c2ccc(F)cc2)CC1)c1ccccc1 (stereo not drawn) [Compound 11] | > 100 | 39 ± 2 | 1000 ± 160 | 45 ± 1 | 400 ± 300 | > 100 | –28 ± 25% | –1900 ± 400 RFUs/min | –59 ± 0.1% | –5600 ± 160 RFUs/min |  |  | no impact on the electric potential |  |  |  |  |  |  | no effect on ethidium bromide efflux
Fc1ccc(C(OCCN2CCNCC2)c2ccc(F)cc2)cc1 [Compound 4] | > 100 | 57 ± 6 | 2700 ± 310 | 46 ± 2 | 800 ± 2000 | > 100 | –16 ± 0.4% | –1000 ± 800 RFUs/min | –57 ± 0.1% | –4500 ± 400 RFUs/min |  |  |  |  |  |  |  |  |  | 
OC(CCN1CCN(CCOC(c2ccc(F)cc2)c2ccc(F)cc2)CC1)c1ccccc1 (stereo not drawn) [Compound 9] | 100 | 349 ± 1 | 4500 ± 40 | 68 ± 1 | 1100 ± 1000 | > 100 | –16 ± 0.4% | –1200 ± 600 RFUs/min | –11 ± 0.1% | –1100 ± 110 RFUs/min | < 100 | 98.2 | greater impact than vanoxerine |  |  |  |  |  |  | 
O=C(c1ccccc1)N1CCN(CCOC(c2ccc(F)cc2)c2ccc(F)cc2)CC1 [Compound 8] | > 100 | 37 ± 2 | 600 ± 30 | 26 ± 2 | 120 ± 460 | > 100 | –26 ± 0.2% | –1799 ± 400 RFUs/min | –63 ± 0.1% | –4300 ± 400 RFUs/min |  |  |  |  |  |  |  |  |  | 
Fc1ccc(C(OCCN2CCN(CC3CCCCC3)CC2)c2ccc(F)cc2)cc1 [Compound 7] | 100 | 94 ± 2 | 1000 ± 16 | 32 ± 1 | 120 ± 90 | 100 (≈ 42.9 µg/mL) | –21 ± 0.1% | –1600 ± 100 RFUs/min | –43 ± 0.2% | –2200 ± 60 RFUs/min |  |  |  |  |  |  |  |  |  | 
COc1ccc(CCN(C)CCCC(C#N)(c2ccc(OC)c(OC)c2)C(C)C)cc1OC (stereo not drawn) [verapamil, reference compound] |  | 210 ± 7 | 2900 ± 140 | 52 ± 6 | 640 ± 1400 |  |  |  |  |  |  |  |  |  |  |  |  |  |  | 
